This test has as its target ABL (Homo sapiens, UniProt P00519). The test can be described thus: ABL tyrosine kinase inhibition, off-chip incubation mobility-shift kinase assay (Caliper LABCHIP 3000). To be noted: for pIC50: ABL, ATP at Km 14 μM, unit inferred; for ABL AVG % Activity at Specific Concentration: average of replicate wells.
Setting [1] is: at 1.0E−09 (concentration unit not given).
The mark [2] stands for this setting: at 1.0E−10 (concentration unit not given).
The mark [3] stands for this setting: at 1.0E−11 (concentration unit not given).
The mark [4] stands for this setting: at 3.0E−09 (concentration unit not given).
The mark [5] stands for this setting: at 3.0E−10 (concentration unit not given).
Where [6] appears, read: at 3.0E−11 (concentration unit not given).

SMILES strings stand for the structures. pIC50: −log10 of the molar value.

Sequence of ABL (P00519 whole entry): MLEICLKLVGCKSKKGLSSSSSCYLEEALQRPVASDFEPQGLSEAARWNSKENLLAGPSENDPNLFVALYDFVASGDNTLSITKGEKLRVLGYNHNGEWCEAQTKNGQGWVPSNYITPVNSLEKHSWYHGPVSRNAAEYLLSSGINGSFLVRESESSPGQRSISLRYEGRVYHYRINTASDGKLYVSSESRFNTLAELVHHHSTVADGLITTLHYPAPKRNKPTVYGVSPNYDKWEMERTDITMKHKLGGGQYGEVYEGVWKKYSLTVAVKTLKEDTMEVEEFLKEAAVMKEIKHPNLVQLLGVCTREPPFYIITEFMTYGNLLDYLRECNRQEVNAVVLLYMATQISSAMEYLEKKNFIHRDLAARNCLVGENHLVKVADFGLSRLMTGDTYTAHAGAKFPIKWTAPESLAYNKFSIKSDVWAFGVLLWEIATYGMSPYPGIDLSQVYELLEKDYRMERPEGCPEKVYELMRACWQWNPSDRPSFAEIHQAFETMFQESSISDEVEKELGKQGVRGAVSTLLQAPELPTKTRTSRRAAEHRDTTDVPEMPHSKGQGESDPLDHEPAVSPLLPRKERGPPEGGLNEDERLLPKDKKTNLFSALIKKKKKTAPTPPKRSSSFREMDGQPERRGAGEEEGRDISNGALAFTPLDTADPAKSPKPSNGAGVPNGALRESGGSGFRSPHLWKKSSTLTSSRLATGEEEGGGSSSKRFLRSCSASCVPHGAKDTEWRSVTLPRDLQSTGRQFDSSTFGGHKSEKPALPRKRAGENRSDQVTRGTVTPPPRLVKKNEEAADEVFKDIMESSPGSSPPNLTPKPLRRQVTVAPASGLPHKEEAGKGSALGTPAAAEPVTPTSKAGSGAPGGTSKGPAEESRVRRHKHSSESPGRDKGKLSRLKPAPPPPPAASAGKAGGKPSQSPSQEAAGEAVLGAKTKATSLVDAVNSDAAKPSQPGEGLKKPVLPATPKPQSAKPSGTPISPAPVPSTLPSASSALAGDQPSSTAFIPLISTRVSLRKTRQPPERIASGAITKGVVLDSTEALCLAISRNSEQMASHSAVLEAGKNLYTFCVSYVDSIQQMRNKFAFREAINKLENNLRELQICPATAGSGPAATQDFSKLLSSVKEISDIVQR

Usually pIC50 stands for the IC50 on a negative log10 scale, so that one unit is a factor of ten. In the case of `COCCOCCOCCOCC(=O)OCCN1CCN(c2cc(Nc3ncc(C(=O)Nc4c(C)cccc4Cl)s3)nc(C)n2)CC1` [mPEG3-COO-Dasatinib], the negative logarithm of the IC50 (pIC50) is 9.54. For the same molecule, the “ABL AVG % Activity at Specific Concentration” value (from here on “ABL AVG % Activity”) under setting [1] is 2%. For the same molecule, the “ABL AVG % Activity” value under setting [2] amounted to 80%. Besides, the “ABL AVG % Activity” value under setting [3] was 98%. The “ABL AVG % Activity” value under setting [4] is −1%. The “ABL AVG % Activity” value under setting [5] came out at 44%. Besides, the “ABL AVG % Activity” value under setting [6] came out at 92%.

Take `COCCOCCOCCOCC(=O)NC(CC(C)C)C(=O)OCCN1CCN(c2cc(Nc3ncc(C(=O)Nc4c(C)cccc4Cl)s3)nc(C)n2)CC1` (centres unmarked) [mPEG3-Leu-Dasatinib]: the pIC50 was 9.37. The “ABL AVG % Activity” value under setting [1] is 14%. Under setting [2], the “ABL AVG % Activity” value came out at 85%. For the same molecule, the “ABL AVG % Activity” value under setting [3] stood at 99%. For the same molecule, the “ABL AVG % Activity” value under setting [4] is on record as 1%. Under setting [5], the “ABL AVG % Activity” value is given as 62%. Besides, the “ABL AVG % Activity” value under setting [6] is 97%.

Take `COCCOCCOCCOCC(=O)N[C@H](C(=O)OCCN1CCN(c2cc(Nc3ncc(C(=O)Nc4c(C)cccc4Cl)s3)nc(C)n2)CC1)C(C)C` [mPEG3-Val-Dasatinib]: the pIC50 is 9.43. Also, the “ABL AVG % Activity” value under setting [1] worked out at 10%. For the same molecule, under setting [2], the “ABL AVG % Activity” value turned out to be 85%. Under setting [3], the “ABL AVG % Activity” value is 98%. For the same molecule, the “ABL AVG % Activity” value under setting [4] was 0%. Moreover, the “ABL AVG % Activity” value under setting [5] is reported as 54%. The “ABL AVG % Activity” value under setting [6] was found to be 95%.

`COCCOCCOCCOCCOCCNC(=O)OCCN1CCN(c2cc(Nc3ncc(C(=O)Nc4c(C)cccc4Cl)s3)nc(C)n2)CC1` [mPEG5-NHCOO-Dasatinib]: the pIC50 is 9.52. In addition, the “ABL AVG % Activity” value under setting [1] was 4%. Besides, the “ABL AVG % Activity” value under setting [2] amounted to 80%. Further, the “ABL AVG % Activity” value under setting [3] was 97%. For the same molecule, the “ABL AVG % Activity” value under setting [4] is −1%. Besides, the “ABL AVG % Activity” value under setting [5] was determined as 45%. The “ABL AVG % Activity” value under setting [6] stood at 94%.

`COCCOCCOCCOCCOCCOCCOCCOCCOCCNC(=O)OCCN1CCN(c2cc(Nc3ncc(C(=O)Nc4c(C)cccc4Cl)s3)nc(C)n2)CC1` [mPEG9-NHCOO-Dasatinib]: the negative-log IC50 (pIC50) was 9.51. Under setting [1], the “ABL AVG % Activity” value is reported as 4%. Also, the “ABL AVG % Activity” value under setting [2] is recorded as 80%. Also, under setting [3], the “ABL AVG % Activity” value was 97%. Under setting [4], the “ABL AVG % Activity” value is −1%. Moreover, under setting [5], the “ABL AVG % Activity” value was found to be 47%. In addition, the “ABL AVG % Activity” value under setting [6] is 92%.
